Results published in patent publication US5045559A, “Treatment of skin disorders” (priority 1988, dated 1991).
Where two headings read alike, the source gives them in different places.

Columns and labels:
[1] = In vivo delivery to human stratum corneum (tritiated esters applied to arms of volunteers, tape stripping); conditions: 18 hours; for Pyroglutamic acid delivered, Ethanol base: 1% w/v in anhydrous ethanol; for Pyroglutamic acid delivered, Cream base: 1% w/v in oil-in-water emulsion base
Excerpt: Accordingly, [^3 H] esters of pyroglutamic acid were each dissolved at 1% w/v in anhydrous ethanol or in an oil-in-water emulsion base. […] The [^3 H] pyroglutamic acid was separated from unchanged ester by chromotography on AG1X8 resin and the amount delivered to the skin expressed as nmoles per mg of stratum corneum protein.

[2] = In vitro delivery of pyroglutamic acid to stratum corneum of the rat (tritiated esters on newborn rat skin, resistant to 2 h water washing); type: in vitro ADME
Description: In vitro evidence to confirm delivery of pyroglutamic acid to stratum corneum of the rat
In an in vitro laboratory test, esters of pyroglutamic acid labelled with ^3 H on the pyroglutamic acid residue were applied as a 1% by weight solution in ethanol to newborn rat skin held in a glass cell, allowing the dermal side of the skin to be bathed in a buffered salts solution while the epidermal surface was exposed to normal atmospheric conditions. After 24 hours, samples of skin were taken and washed with continuous agitation in several charges of water at room temperature.
Interfollicular epidermis was removed from these skin pieces by "freeze scraping"-which avoids contamination of the sample by follicular tissue or material trapped within the hair follicle. The epidermis was then extracted in methanol and the soluble extract analysed by column chromatography. The amount of tritiated pyroglutamic acid present in the epidermis in a form resistant to a period of 2 hours continuous washing with water was measured. The quantity of tritiated pyroglutamic acid delivered and retained by the skin in this way is recorded in Table 1 below: […]

| Pyroglutamic acid delivered, Ethanol base [1] [n mol/mg protein] | Pyroglutamic acid delivered, Cream base [1] [n mol/mg protein] | Pyroglutamic acid delivered [2] [n moles/cm^2 skin] | SMILES | other results |
| --- | --- | --- | --- | --- |
| 4 | 1 |  | CCCCCCCCCCCCOC(=O)[C@@H]1CCC(=O)N1 [Dodecyl, pyroglutamic acid n-dodecyl ester] |  |
|  |  | 17 ± 5 | COC(=O)[C@@H]1CCC(=O)N1 [Pyroglutamic acid, methyl ester, pyroglutamic acid methyl ester] |  |
| 6 | 2 | 17 ± 8 | CCCCOC(=O)[C@@H]1CCC(=O)N1 [Pyroglutamic acid, n-butyl ester, pyroglutamic acid n-butyl ester] |  |
| 5 | 2 | 32 ± 10 | CCCCCCOC(=O)[C@@H]1CCC(=O)N1 [Pyroglutamic acid, n-hexyl ester, pyroglutamic acid n-hexyl ester] |  |
| 4 | 1 | 36 ± 7 | CCCCCCCCOC(=O)[C@@H]1CCC(=O)N1 [Pyroglutamic acid, n-octyl ester, pyroglutamic acid n-octyl ester] | delivery to the stratum corneum of pyroglutamic acid which resisted washing out with water (in words) [2]: best result |
|  |  | 21 ± 8 | CCCOC(=O)[C@@H]1CCC(=O)N1 [Pyroglutamic acid, n-propyl ester, pyroglutamic acid n-propyl ester] |  |
|  |  |  | O=C1CCC(C(=O)O)N1 (stereo not shown) [pyroglutamic acid, 2-pyrrolidone-5-carboxylic acid, reference compound] | amount recovered from / reaching the stratum corneum following topical application (in words) [1]: little pyroglutamic acid reached the stratum corneum if applied as the free acid; amount recovered from / reaching the stratum corneum following topical application (in words) ([1]; listed as [^3 H] pyroglutamic acid): negligible amount |

| SMILES | Pyroglutamic acid delivered, Ethanol base [1] [n mol/mg protein] | Pyroglutamic acid delivered, Cream base [1] [n mol/mg protein] | Pyroglutamic acid delivered [2] [n moles/cm^2 skin] | other results |
| --- | --- | --- | --- | --- |
| CCOC(=O)[C@@H]1CCC(=O)N1 [Pyroglutamic acid, ethyl ester, pyroglutamic acid ethyl ester] | 8 | 5 |  | Pyroglutamic acid delivered ([2]; 1% by weight in ethanol, newborn rat skin, 24 hours, resistant to 2 hours continuous washing with water): 18 ± 5 n moles/cm^2 skin |
